The target in experiment [1] is T1, Adrenergic β2 (H292 cells) (Homo sapiens, UniProt P07550).
T1 construct: endogenous in cells; host or cells: H292 cells
Description: Assay for Adrenergic β2 Mediated cAMP Production (concentration response, AlphaScreen cAMP detection). It is filed as cell-based. To be noted: for EC50: cAMP production, 60 minutes at room temperature, 300 μM rolipram, read-out: β2 pEC50 (converted); for β2 Intrinsic activity: fraction relative to the maximum activity determined for formoterol. The method in brief: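 Intrinsic activity is relative to the per-experiment formoterol maximum, with pEC50 from a four-parameter logistic fit of cAMP levels quantified by AlphaScreen against standards. Cells (H292) got 300 μM rolipram for 10 min, then compound for 60 min at room temperature, 1% DMSO final.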

For experiment [2], the target named is T2, human muscarinic acetylcholine M3 receptor (M3-ACh) (Homo sapiens, UniProt P20309).
T2 construct: expressed in transfected cells; host or cells: CHO-K1 (Chinese Hamster Ovary) cell membranes
T2 sequence (P20309 whole entry): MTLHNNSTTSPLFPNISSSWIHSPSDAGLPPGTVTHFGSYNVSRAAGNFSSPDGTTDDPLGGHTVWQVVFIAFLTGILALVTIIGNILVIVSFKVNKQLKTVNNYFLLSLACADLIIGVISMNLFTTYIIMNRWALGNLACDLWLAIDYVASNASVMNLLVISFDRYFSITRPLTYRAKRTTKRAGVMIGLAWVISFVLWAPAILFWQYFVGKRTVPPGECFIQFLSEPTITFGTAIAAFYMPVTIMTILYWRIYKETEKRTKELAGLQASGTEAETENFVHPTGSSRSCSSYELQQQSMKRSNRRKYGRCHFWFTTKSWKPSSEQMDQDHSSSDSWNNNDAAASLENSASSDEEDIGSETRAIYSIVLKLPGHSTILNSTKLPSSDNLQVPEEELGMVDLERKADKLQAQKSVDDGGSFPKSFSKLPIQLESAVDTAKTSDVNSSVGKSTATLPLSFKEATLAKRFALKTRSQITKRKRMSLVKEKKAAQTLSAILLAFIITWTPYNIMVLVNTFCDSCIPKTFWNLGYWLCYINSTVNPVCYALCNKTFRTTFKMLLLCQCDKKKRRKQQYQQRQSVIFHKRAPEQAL
Description: Muscarinic 3 Receptor Binding Assay, % inhibition specific binding at 1 μM. The following applies: 1 μM compound, % inhibition specific [3H]-NMS binding. The method in brief: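 Value is % inhibition of specific [3H]N-methyl scopolamine binding (0.1 nM, quarter Kd) by 1 μM compound, using SPA beads precoated with human M3-expressing CHO-K1 membranes. Buffer HEPES pH 7.4 with MgCl2 and 1% DMSO; 16 h at room temperature; 1 μM atropine sets non-specific binding.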

Experiment [3] has as its target T1, Adrenergic β2 (H292 cells). The experiment can be described thus: Adrenergic β2 Mediated cAMP Production, single concentration 1 μM. It is filed as cell-based. To be noted: NCI-H292, 1 μM compound, percentage of the maximum response generated by 1E-07M formoterol, read-out: β2 (% effect at 1 μM). A digest of the protocol: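 cAMP was quantified by AlphaScreen in lysates of H292 cells and reported as a percentage of the 1E-07M formoterol maximum. Before lysis the cells, seeded the previous day, received rolipram (300 μM final) and then test compound at a final 1 μM in 1% DMSO for 60 min at room temperature.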

The target in experiment [4] is T2, human muscarinic acetylcholine M3 receptor (M3-ACh). The experiment can be described thus: Muscarinic 3 Receptor Binding Assay ([3H]NMS competition, SPA). To be noted: [3H]NMS 0.1 nM, CHO-K1 cell membranes, 16 hours at room temperature; read-out: M3 pIC50 (converted). The method in brief: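 Competition SPA binding of 0.1 nM [3H]NMS (quarter Kd) to membranes from CHO-K1 cells expressing human M3, in 20 mM HEPES pH 7.4, 5 mM MgCl2, 1% DMSO. Incubated 16 h at room temperature; non-specific binding with 1 µM atropine. pIC50 from 50% reduction of specific binding.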

T1 sequence (P07550 whole entry): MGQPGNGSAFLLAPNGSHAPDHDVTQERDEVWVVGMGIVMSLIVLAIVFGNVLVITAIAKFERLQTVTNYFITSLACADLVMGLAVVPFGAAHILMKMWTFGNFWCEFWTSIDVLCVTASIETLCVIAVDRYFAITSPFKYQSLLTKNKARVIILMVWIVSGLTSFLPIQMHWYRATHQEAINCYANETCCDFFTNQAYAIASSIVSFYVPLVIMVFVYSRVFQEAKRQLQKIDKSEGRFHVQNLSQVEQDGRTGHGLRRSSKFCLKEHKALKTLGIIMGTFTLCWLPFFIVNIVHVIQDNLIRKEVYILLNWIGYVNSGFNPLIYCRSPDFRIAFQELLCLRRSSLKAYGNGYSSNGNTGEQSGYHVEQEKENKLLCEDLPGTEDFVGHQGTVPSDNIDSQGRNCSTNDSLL

As a reminder, the inhibition is the change of the read-out against control, counted positive when it falls. Read a low inhibition as little suppression. As for `Cc1ccc(C(=O)N2CCOC3(CCN(Cc4cc(F)cc(CCNC[C@H](O)c5ccc(O)c6[nH]c(=O)sc56)c4)CC3)C2)s1` [Example 118, (R)-7-(2-(3-fluoro-5-((4-(5-methylthiophene-2-carbonyl)-1-oxa-4,9-diazaspiro[5.5]undecan-9-yl)methyl)phenethylamino)-1-hydroxyethyl)-4-hydroxybenzo[d]thiazol-2(3H)-one], in experiment [1], the EC50 is 0.00631 µM and the “β2 Intrinsic activity” value worked out at 1. This molecule yielded an inhibition at 1 µM in experiment [2] of 95%. The activation at 1 µM in experiment [3] is 101%. Further, in experiment [4], the IC50 was 0.02 µM.
The like results for `O=C(c1ccc(Cl)s1)N1CCOC2(CCN(CCCCCCCCCNC[C@H](O)c3ccc(O)c4[nH]c(=O)sc34)CC2)C1` [Example 190, (R)-7-(2-(9-(4-(5-chlorothiophene-2-carbonyl)-1-oxa-4,9-diazaspiro[5.5]undecan-9-yl)nonylamino)-1-hydroxyethyl)-4-hydroxybenzo[d]thiazol-2(3H)-one] were, in that order, 0.0126 µM, 0.9, 99%, 77% and 0.002 µM.
The like results for `Cc1cc(C(=O)N2CCOC3(CCN(CCCCCCCCCNC[C@H](O)c4ccc(O)c5[nH]c(=O)sc45)CC3)C2)c(C)s1` [Example 202, (R)-7-(2-(9-(4-(2,5-dimethylthiophene-3-carbonyl)-1-oxa-4,9-diazaspiro[5.5]undecan-9-yl)nonylamino)-1-hydroxyethyl)-4-hydroxybenzo[d]thiazol-2(3H)-one] were, in that order, 0.02 µM, 0.9, 99%, 98% and 0.00794 µM.
The matching figures for `O=C(c1csc(C2CCCC2)n1)N1CCOC2(CCN(CCCCCCCCCNC[C@H](O)c3ccc(O)c4[nH]c(=O)sc34)CC2)C1` [Example 221, (R)-7-(2-(9-(4-(2-cyclopentylthiazole-4-carbonyl)-1-oxa-4,9-diazaspiro[5.5]undecan-9-yl)nonylamino)-1-hydroxyethyl)-4-hydroxybenzo[d]thiazol-2(3H)-one]: 0.0316 µM, 0.9, 99%, 93% and 0.00126 µM.
As to `O=C(c1ccc2occc2c1)N1CCOC2(CCN(Cc3cc(F)cc(CCNC[C@H](O)c4ccc(O)c5[nH]c(=O)sc45)c3)CC2)C1` [Example 173, (R)-7-(2-(3-((4-(benzofuran-5-carbonyl)-1-oxa-4,9-diazaspiro[5.5]undecan-9-yl)methyl)-5-fluorophenethylamino)-1-hydroxyethyl)-4-hydroxybenzo[d]thiazol-2(3H)-one], in experiment [1], the EC50 is 0.00251 µM and the “β2 Intrinsic activity” value is on record as 0.8. In addition, testing at 1 µM in experiment [2] gave an inhibition of 99%. The activation at 1 µM in experiment [3] turned out to be 93%. The IC50 in experiment [4] is 0.00794 µM.
The like results for `Cc1nc(C(=O)N2CCOC3(CCN(CCCCCCCCCNC[C@H](O)c4ccc(O)c5[nH]c(=O)sc45)CC3)C2)c(C)s1` [Example 201, (R)-7-(2-(9-(4-(2,5-dimethylthiazole-4-carbonyl)-1-oxa-4,9-diazaspiro[5.5]undecan-9-yl)nonylamino)-1-hydroxyethyl)-4-hydroxybenzo[d]thiazol-2(3H)-one] were, in that order, 0.0316 µM, 0.9, 98%, 105% and 0.00631 µM.
The matching figures for `CC(C)(C)CC(=O)N1CCOC2(CCN(Cc3cc(F)cc(CCNC[C@H](O)c4ccc(O)c5[nH]c(=O)sc45)c3)CC2)C1` [Example 130, (R)-7-(2-(3-((4-(3,3-dimethylbutanoyl)-1-oxa-4,9-diazaspiro[5.5]undecan-9-yl)methyl)-5-fluorophenethylamino)-1-hydroxyethyl)-4-hydroxybenzo[d]thiazol-2(3H)-one]: 0.0126 µM, 1, 90%, 109% and 0.0794 µM.
The matching figures for `O=C(c1cccc2cc[nH]c12)N1CCOC2(CCN(Cc3cc(F)cc(CCNC[C@H](O)c4ccc(O)c5[nH]c(=O)sc45)c3)CC2)C1` [Example 141, (R)-7-(2-(3-((4-(1H-indole-7-carbonyl)-1-oxa-4,9-diazaspiro[5.5]undecan-9-yl)methyl)-5-fluorophenethylamino)-1-hydroxyethyl)-4-hydroxybenzo[d]thiazol-2(3H)-one]: 0.00631 µM, 0.9, 91%, 105% and 0.0251 µM.
As to `O=C(c1ccc2occc2c1)N1CCOC2(CCN(CCCCCCCCCNC[C@H](O)c3ccc(O)c4[nH]c(=O)sc34)CC2)C1` [Example 209, (R)-7-(2-(9-(4-(benzofuran-5-carbonyl)-1-oxa-4,9-diazaspiro[5.5]undecan-9-yl)nonylamino)-1-hydroxyethyl)-4-hydroxybenzo[d]thiazol-2(3H)-one], in experiment [1], the EC50 was 0.0251 µM and the “β2 Intrinsic activity” value is 0.9. In experiment [2], this molecule registered an inhibition at 1 µM of 99%. For the same molecule, in experiment [3], the activation at 1 µM stood at 84%. Further, in experiment [4], the IC50 is 0.002 µM.
The matching figures for `CCCc1nc(C(=O)N2CCOC3(CCN(CCCCCCCCCNC[C@H](O)c4ccc(O)c5[nH]c(=O)sc45)CC3)C2)cs1` [Example 219, (R)-4-hydroxy-7-(1-hydroxy-2-(9-(4-(2-propylthiazole-4-carbonyl)-1-oxa-4,9-diazaspiro[5.5]undecan-9-yl)nonylamino)ethyl)benzo[d]thiazol-2(3H)-one]: 0.0501 µM, 0.8, 99%, 92% and 0.001 µM.
The like results for `O=C(c1csc(C2CC2)n1)N1CCOC2(CCN(CCOc3ccc(CNC[C@H](O)c4ccc(O)c5[nH]c(=O)sc45)cc3)CC2)C1` [Example 259, (R)-7-(2-(4-(2-(4-(2-cyclopropylthiazole-4-carbonyl)-1-oxa-4,9-diazaspiro[5.5]undecan-9-yl)ethoxy)benzylamino)-1-hydroxyethyl)-4-hydroxy-benzo[d]thiazol-2(3H)-one] were, in that order, 0.2 µM, 0.9, 99%, 68% and 0.00501 µM.
For the molecule `O=C(c1csc(C2CC2)n1)N1CCOC2(CCN(CCCCCCCCCNC[C@H](O)c3ccc(O)c4[nH]c(=O)sc34)CC2)C1` [Example 218, (R)-7-(2-(9-(4-(2-cyclopropylthiazole-4-carbonyl)-1-oxa-4,9-diazaspiro[5.5]undecan-9-yl)nonylamino)-1-hydroxyethyl)-4-hydroxybenzo[d]thiazol-2(3H)-one], in experiment [1], the EC50 is 0.0251 µM and the “β2 Intrinsic activity” value came to 0.9. Further, in experiment [2], at 1 µM the inhibition was 100%. For the same molecule, the activation at 1 µM in experiment [3] stood at 95%. Also, in experiment [4], the IC50 was 0.000398 µM.
The like results for `O=C(c1ccc2c(c1)CCO2)N1CCOC2(CCN(Cc3cc(F)cc(CCNC[C@H](O)c4ccc(O)c5[nH]c(=O)sc45)c3)CC2)C1` [Example 149, (R)-7-(2-(3-((4-(2,3-dihydrobenzofuran-5-carbonyl)-1-oxa-4,9-diazaspiro[5.5]undecan-9-yl)methyl)-5-fluorophenethylamino)-1-hydroxyethyl)-4-hydroxybenzo[d]thiazol-2(3H)-one] were, in that order, 0.00794 µM, 0.9, 92%, 113% and 0.0251 µM.
The like results for `Cc1nc(CC(=O)N2CCOC3(CCN(CCCCCCCCCNC[C@H](O)c4ccc(O)c5[nH]c(=O)sc45)CC3)C2)cs1` [Example 210, (R)-4-hydroxy-7-(1-hydroxy-2-(9-(4-(2-(2-methylthiazol-4-yl)acetyl)-1-oxa-4,9-diazaspiro[5.5]undecan-9-yl)nonylamino)ethyl)benzo[d]thiazol-2(3H)-one] were, in that order, 0.0158 µM, 0.8, 95%, 92% and 0.00794 µM.

The values are drawn from US8148373B2, “Compounds” (AstraZeneca AB, priority 2008, dated 2012).
